Experimental data published in publication PMC8999917, “Structure–Activity Relationship of Synthetic Ginkgolic Acid Analogs for Treating Type 2 Diabetes by PTPN9 Inhibition” (International Journal of Molecular Sciences, 2022).

Assays:
[1] = test system: Akt phosphorylation in PA-induced insulin-resistant C2C12 cells; assay: Palmitic acid-induced insulin resistance in C2C12 myotubes (p-Akt); format: cell-based, mouse; settings: PA (250 µM, 16 h)-treated C2C12, 5 μM compound for 30 min with 100 nM insulin
Description: Since insulin plays an important role in regulating glucose metabolism through the redistribution of GLUT4 from intracellular vesicles to the cell surface, it is important to describe the interaction between 1e and insulin in the Akt pathway. […] Next, we evaluated the protective effects of 1e against PA-induced insulin resistance in C2C12 myotubes. To generate an insulin resistance model, C2C12 myotubes were treated with 250 µM PA in a serum-free medium for 16 h. Akt phosphorylation levels in PA-treated C2C12 cells decreased by 50% compared to levels in normal C2C12 cells (Figure 6C). Furthermore, in the presence of insulin and GA, Akt phosphorylation levels decreased only by 30% compared to levels in normal cells. […] In addition, the GA analogs induced no cytotoxic effects in C2C12 muscle cells (data not shown). […] The expression levels of glucose uptake-related proteins were determined via Western blotting, as previously described. In brief, differentiated 3T3-L1 cells were plated in six-well plates at a 1.5 × 10^4 cells/well density in a final volume of 2 mL. […] Secondary antibodies were added to the membranes at a concentration of 1:2000 for 1 h at room temperature, and immunoreactive bands were detected via ECL (GE Healthcare Korea Co., Ltd., Incheon, Korea). […]

DUSP9 = target: T1, DUSP9 (Homo sapiens, UniProt Q99956); assay: DUSP9 enzyme inhibition with DiFMUP substrate; format: biochemical; settings: DiFMUP 90 µM, DUSP9 200 nM; NA: no activity
T1 construct: made in house; host or cells: Escherichia coli Rosetta (DE3)
T1 sequence (Q99956 1-384): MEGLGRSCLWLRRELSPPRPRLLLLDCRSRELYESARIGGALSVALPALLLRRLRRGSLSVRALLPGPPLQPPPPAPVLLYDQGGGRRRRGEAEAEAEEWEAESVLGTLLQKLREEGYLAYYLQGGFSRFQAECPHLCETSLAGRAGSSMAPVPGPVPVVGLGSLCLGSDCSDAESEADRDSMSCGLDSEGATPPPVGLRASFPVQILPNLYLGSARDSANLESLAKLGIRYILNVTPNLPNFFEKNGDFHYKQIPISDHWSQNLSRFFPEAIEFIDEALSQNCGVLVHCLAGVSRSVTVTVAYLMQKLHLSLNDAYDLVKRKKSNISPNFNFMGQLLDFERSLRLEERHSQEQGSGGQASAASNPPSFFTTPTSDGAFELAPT
Description: (§1) The purification and kinetic analyses of PTPN9 and DUSP9 (Ser277–581) were performed following methods described in the literature, with slight modifications. PAGE analysis data and enzyme kinetic constants are presented in Figure S1 and Table S1, respectively. Enzyme activity in the presence or absence of the compounds was measured using DiFMUP, a representative PTP fluorogenic substrate. First, the inhibitory effects of compounds 1–3 were evaluated using 50 µM PTPN9 and 20 µM DUSP9. There was an increase in the inhibitory activity of compound 1 for both enzymes as the number of CH2 units increased from 9 to 14 (Figure 2A,B).
(§2) Next, the IC50 values of the compounds, which induce a 50% inhibition of DiFMUP hydrolytic enzyme activity, were determined (Table 1). The IC50 values were determined from the dose–response enzyme inhibition curves of each compound. The dose–response curves for compounds 1e and 1f against PTPN9 and DUSP9, respectively, are presented in Figure 2C,D. Dose–response curves were also obtained for the other compounds (Figures S2 and S3).
(§3) The methods employed for PTP overexpression and purification have been described in a previous study. In brief, human PTPN9 and DUSP9 were cloned into a pET28a vector (Merk Millipore, Darmstadt, Germany) containing a hexahistidine (His6) tag or a maltose-binding protein (MBP) tag in its N-terminus (see Supplementary Materials). Recombinant genes were separately transformed into Escherichia coli Rosetta (DE3) (Merk Millipore, Darmstadt, Germany), and the overexpression of each gene was induced via the addition of 0.1 mM IPTG (Ducherfa Biochemie, Haarlem, RV, USA). After 16 h of incubation at 18 °C, cell pellets were obtained via centrifugation (3570× g at 4 °C for 15 min), resuspended in lysis buffer (50 mM Tris, pH: 7.5, 500 mM NaCl, 5% glycerol, 0.025% 2-mercaptoethanol, and 1 mM phenyl-methylsulfonyl fluoride (PMSF)), and lysed by ultrasonication. Subsequently, cell lysates were centrifuged at 29,820× g for 30 min at 4 °C; then, the supernatant was collected and incubated with a cobalt affinity resin (TALON® Metal Affinity Resin, Takara Korea, Seoul, Korea). After 1 h of incubation at 4 °C, the desired proteins were eluted by adding the lysis buffer supplemented with 100 mM imidazole. Samples were stored at –80 °C until use.
(§4) The enzymatic activities of purified PTPN9 and DUSP9 were measured using 6,8-difluoro-4-methylumbelliferyl phosphate (DiFMUP), the most widely used fluorogenic PTP substrate in the literature. To determine KM values, PTPN9 (0.15 nM) and DUSP9 (200 nM) were added to a reaction buffer (20 mM Bis-tris, pH: 7.0, 150 mM NaCl, 2.5 mM dithiothreitol (DTT), and 0.01% Triton X-100) containing DiFMUP (800, 400, 200, 100, 50, 25, 12.5, or 6.25 μM) in a 96-well black plate. The final reaction volume was 100 µL. The fluorescence intensity was continuously monitored for 10 min (Ex/Em = 355/460 nm) on a Victor™ X4 multilabel plate reader (Perkin Elmer, Norwalk, CT, USA). KM values were obtained using Lineweaver–Burk plots analysis.
(§5) To evaluate the enzyme inhibitory effects of GA and its analogs, 10 µl of the enzyme stock solution (1.5 nM PTPN9 and 2 µM DUSP9) in the reaction buffer was added into the mixture of DiFMUP (to a final concentration of 220 µM and 90 µM for PTPN9 and DUSP9, respectively) and each compound (to a final concentration of 50 µM and 20 µM for PTPN9 and DUSP9, respectively) was added to the reaction buffer. Enzyme activity was measured as described above. Half-inhibitory concentration (IC50) values were determined under similar conditions, except for the concentrations of the inhibitors (200, 100, 50, 25, 12.5, 6.25, or 3.125 µM for PTPN9 and 25, 12.5, 6.25, 3.125, 1.563, 0.782, or 0.391 µM for DUSP9). The dose-dependent curve was fitted to the four-parameter logistic regression equation, (y = a + (b – a)/(1 + (x/c)^d), to obtain IC50 values using the Kaleida Graph software Ver. 4.1.3. (Synergy Software Inc, PA, USA).

PTPN9 = target: T2, PTPN9 (Homo sapiens, UniProt P43378); assay: PTPN9 enzyme inhibition with DiFMUP substrate; format: biochemical; settings: DiFMUP 220 µM, PTPN9 0.15 nM; NA: no activity
T2 construct: made in house; host or cells: Escherichia coli Rosetta (DE3)
T2 sequence (P43378 277-581): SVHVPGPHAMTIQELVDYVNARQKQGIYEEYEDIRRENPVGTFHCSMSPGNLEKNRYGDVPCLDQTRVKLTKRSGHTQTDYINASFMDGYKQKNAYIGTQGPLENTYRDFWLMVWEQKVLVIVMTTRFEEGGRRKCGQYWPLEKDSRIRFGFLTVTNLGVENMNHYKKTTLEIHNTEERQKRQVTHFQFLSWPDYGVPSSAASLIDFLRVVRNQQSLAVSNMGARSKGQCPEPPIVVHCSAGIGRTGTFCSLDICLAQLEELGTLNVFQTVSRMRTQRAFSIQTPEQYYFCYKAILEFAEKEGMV
Description: as §1, §2, §3, §4, §5

IC50 (DUSP9): 3.64 ± 0.11 µM
IC50 (PTPN9): 21.8 ± 0.45 µM
Compound: CCCCCCCCCCCCCc1cccc(O)c1C(=O)O [GA, Ginkgolic acid (C13:0), reference compound]
decrease of Akt phosphorylation levels compared to normal cells [1]: 30%
